Results from ChEMBL document CHEMBL4002569, “Improved anticancer and antiparasitic activity of new lawsone Mannich bases” (Eur J Med Chem, 2017).
Blank lines part the entries; values can stand above or below the molecule they belong to. The source made the active and inactive calls. The rule behind the calls is not given here.

Assays:
[1] = tested on: 518A2; assay: Antiproliferative activity against human 518A2 cells after 72 hrs by MTT assay; assay type: functional, cell-based; details: 518A2, 72 h
[2] = tested on: HCT-116; assay: Antiproliferative activity against human HCT116 cells after 72 hrs by MTT assay; assay type: functional, cell-based; details: HCT-116, 72 h
[3] = tested on: KB-V1; assay: Antiproliferative activity against vinblastine-resistant human KBV1 cells after 72 hrs by MTT assay; assay type: functional, cell-based; details: KB-V1, 72 h
[4] = tested on: PANC-1; assay: Antiproliferative activity against human PANC1 cells after 72 hrs by MTT assay; assay type: functional, cell-based; details: PANC-1, 72 h
[5] = tested on: MDA-MB-231; assay: Antiproliferative activity against human MDA-MB-231 cells at <25 uM after 96 hrs by MTT assay; assay type: functional, cell-based
[6] = tested on: BXPC-3; assay: Antiproliferative activity against human BxPC3 cells at <25 uM after 96 hrs by MTT assay; assay type: functional, cell-based
[7] = tested on: PC-3; assay: Antiproliferative activity against human PC3 cells at <25 uM after 96 hrs by MTT assay; assay type: functional, cell-based
[8] = tested on: MDA-MB-231; assay: Antiproliferative activity against human MDA-MB-231 cells at >10 to 25 uM after 96 hrs by MTT assay; assay type: functional, cell-based
[9] = tested on: BXPC-3; assay: Antiproliferative activity against human BxPC3 cells at >10 to 25 uM after 96 hrs by MTT assay; assay type: functional, cell-based
[10] = tested on: PC-3; assay: Antiproliferative activity against human PC3 cells at >10 to 25 uM after 96 hrs by MTT assay; assay type: functional, cell-based
[11] = tested on: MDA-MB-231; assay: Antiproliferative activity against human MDA-MB-231 cells at <10 uM after 96 hrs by MTT assay; assay type: functional, cell-based
[12] = tested on: BXPC-3; assay: Antiproliferative activity against human BxPC3 cells at <10 uM after 96 hrs by MTT assay; assay type: functional, cell-based
[13] = tested on: PC-3; assay: Antiproliferative activity against human PC3 cells at <10 uM after 96 hrs by MTT assay; assay type: functional, cell-based
[14] = tested on: 518A2; assay: Induction of reactive oxygen species generation in human 518A2 cells at 0.1 uM after 24 hrs by NBT assay relative to control; assay type: functional
[15] = tested on: 518A2; assay: Induction of reactive oxygen species generation in human 518A2 cells at 0.5 uM after 24 hrs by NBT assay relative to control; assay type: functional
[16] = tested on: Trypanosoma brucei brucei; assay: Antitrypanosomal activity against bloodstream trypomastigote form of Trypanosoma brucei brucei 65.3 […] after 72 hrs by Alamar Blue assay; assay type: functional, cell-based; details: Trypanosoma brucei, 65.3, 72 h
[17] = tested on: Trypanosoma brucei brucei; assay: Antitrypanosomal activity against bloodstream trypomastigote form of Trypanosoma brucei brucei 65.3 assessed as deformation of microtubule cytoskeleton at 10 uM after 3 to 6 hrs by DAPI staining-based fluorescence microscopic method; assay type: functional
[18] = tested on: Entamoeba histolytica; assay: Antiamoebic activity against Entamoeba histolytica assessed as growth inhibition at 200 ug/ml after 24 hrs by trypan blue dye-based hemocytometer relative to control; assay type: functional; details: read-out: GI
[19] = tested on: Entamoeba histolytica; assay: Antiamoebic activity against Entamoeba histolytica assessed as growth inhibition at 200 ug/ml after 48 hrs by trypan blue dye-based hemocytometer relative to control; assay type: functional; details: read-out: GI
[20] = tested on: Entamoeba histolytica; assay: Antiamoebic activity against Entamoeba histolytica assessed as growth inhibition at 200 ug/ml after 72 hrs by trypan blue dye-based hemocytometer relative to control; assay type: functional; details: read-out: GI
[21] = tested on: MDA-MB-231; assay: Antiproliferative activity against human MDA-MB-231 cells at 1 to 50 uM after 96 hrs by MTT assay; assay type: functional, cell-based
[22] = tested on: BXPC-3; assay: Antiproliferative activity against human BxPC3 cells at 1 to 50 uM after 96 hrs by MTT assay; assay type: functional, cell-based
[23] = tested on: PC-3; assay: Antiproliferative activity against human PC3 cells at 1 to 50 uM after 96 hrs by MTT assay; assay type: functional, cell-based

IC50 [2]: 6.77 µM
IC50 [3]: 8.61 µM
IC50 [4]: 17.6 µM
SMILES: O=C1C(O)=C(C(NCc2ccccn2)c2ccccn2)C(=O)c2ccccc21 (stereo unspecified)
IC50 [1]: 6.98 µM

SMILES: CCCCCCCNC(C1=C(O)C(=O)c2ccccc2C1=O)c1ccc(O)c(OC)c1 (stereo unspecified)
growth inhibition (GI) [5]: inactive
growth inhibition (GI) [6]: inactive
growth inhibition (GI) [7]: inactive

SMILES: CCCCCCCNC(C1=C(O)C(=O)c2ccccc2C1=O)c1ccc(F)c(F)c1 (stereo unspecified)
growth inhibition (GI) [8]: Active
growth inhibition (GI) [9]: Active
growth inhibition (GI) [10]: Active
growth inhibition (GI) [11]: inactive
growth inhibition (GI) [12]: inactive
growth inhibition (GI) [13]: inactive

IC50 [2]: 6.39 µM
IC50 [3]: 0.41 µM
IC50 [4]: 6.41 µM
IC50 [16]: 3.73 µM
SMILES: CCCCCCCNC(C1=C(O)C(=O)c2ccccc2C1=O)c1ccccn1 (stereo unspecified)
IC50 [1]: 2.58 µM
Activity [14]: 50%
Activity [15]: 70%
Activity [17]: inactive

SMILES: CCCCCCCCCCCCCCNC(C1=C(O)C(=O)c2ccccc2C1=O)c1ccc(F)c(F)c1 (stereo unspecified)
growth inhibition (GI) [8]: Active
growth inhibition (GI) [9]: Active
growth inhibition (GI) [10]: Active
growth inhibition (GI) [11]: inactive
growth inhibition (GI) [12]: inactive
growth inhibition (GI) [13]: inactive

SMILES: COc1cc(C(NCc2ccccc2)C2=C(O)C(=O)c3ccccc3C2=O)ccc1O (stereo unspecified)
growth inhibition (GI) [5]: inactive
growth inhibition (GI) [6]: inactive
growth inhibition (GI) [7]: inactive

SMILES: Cc1ncc([N+](=O)[O-])n1CCO [METRONIDAZOLE]
inhibition of growth at 200 µg/mL [18]: 54.1%
inhibition of growth at 200 µg/mL [19]: 58.7%
inhibition of growth at 200 µg/mL [20]: 60.4%

IC50 [2]: 11.4 µM
IC50 [3]: 16.8 µM
IC50 [4]: 7.94 µM
SMILES: CCCCCCCCCCCCCCCCNC(C1=C(O)C(=O)c2ccccc2C1=O)c1ccc(O)c(OC)c1 (stereo unspecified)
growth inhibition (GI) [21]: Active
growth inhibition (GI) [22]: Active
growth inhibition (GI) [23]: Active
IC50 [1]: 12.2 µM

IC50 [16]: 0.005 µM
SMILES: N=C(N)c1ccc(OCCCCCOc2ccc(C(=N)N)cc2)cc1 [PENTAMIDINE]
